Measured values as given in patent US9474790B2, “Stable, protracted GLP-1/glucagon receptor co-agonists for medical use” (Novo Nordisk A/S, priority 2013, dated 2016).
Numbered stars: 1 amine (or outer) side, 2 acyl side, 3 side chain; on linkers, the order of the positions; unused ones are H or OH. Square brackets hold non-standard residues; d marks the D form. Side chains are listed from the residue outwards. Peptide text beside a SMILES is read from it. * marks the point of attachment. C18 diacid = O=C(O)CCCCCCCCCCCCCCCCC(=O)*; γGlu = O=C(O)[C@H](CCC(=O)[*:2])N[*:1]; AEEA = NCCOCCOCC(=O)O; Aib = CC(C)(N)C(=O)O

Target: T1, human GLP-1 receptor (Homo sapiens, UniProt P43220)
T1 construct: expressed in transfected cells; host or cells: BHK cells (parent BHKTS13), clone FCW467-12A/KZ10-1, with CRE luciferase
Experiment: GLP-1 receptor binding, 125I-GLP-1 displacement SPA on isolated membranes
Conditions: displacement of 125I-GLP-1 from membranes; read-out: IC50 GLP-1R
In short: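 SPA displacement of 125I-GLP-1(7-36)NH2 from membranes of BHK cells expressing human GLP-1 receptor, with WGA beads, in 50 mM HEPES, 5 mM EGTA, 5 mM MgCl2, 0.005% Tween 20, pH 7.4. Incubated 2 h at 30°C; IC50 by non-linear regression, run at ≤0.001% or 2.0% final serum albumin.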

T1 sequence (P43220 24-463): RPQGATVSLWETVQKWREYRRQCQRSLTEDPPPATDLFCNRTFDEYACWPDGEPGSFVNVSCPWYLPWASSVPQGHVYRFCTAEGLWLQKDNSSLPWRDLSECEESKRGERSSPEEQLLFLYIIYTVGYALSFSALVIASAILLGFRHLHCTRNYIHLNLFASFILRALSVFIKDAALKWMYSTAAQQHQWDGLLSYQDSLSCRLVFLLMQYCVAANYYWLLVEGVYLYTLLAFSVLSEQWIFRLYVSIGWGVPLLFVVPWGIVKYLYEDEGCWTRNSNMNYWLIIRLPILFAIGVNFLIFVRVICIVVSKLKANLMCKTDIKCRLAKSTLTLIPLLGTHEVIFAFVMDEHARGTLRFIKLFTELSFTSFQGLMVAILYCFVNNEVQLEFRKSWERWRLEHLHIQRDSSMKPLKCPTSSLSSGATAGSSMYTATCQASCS

| SMILES | IC50 [nM] |
| --- | --- |
| CC(C)C[C@H](NC(=O)[C@H](CC(=O)O)NC(=O)[C@H](CC(C)C)NC(=O)[C@H](Cc1ccc(O)cc1)NC(=O)[C@H](CCCCN)NC(=O)[C@H](CO)NC(=O)[C@H](CC(C)C)NC(=O)[C@H](CC(=O)O)NC(=O)[C@H](CO)NC(=O)[C@@H](NC(=O)[C@H](Cc1ccccc1)NC(=O)[C@@H](NC(=O)CNC(=O)[C@H](CCC(N)=O)NC(=O)C(C)(C)NC(=O)[C@@H](N)Cc1c[nH]cn1)[C@@H](C)O)[C@@H](C)O)C(=O)N[C@@H](CCCCN)C(=O)N[C@@H](CCCNC(=N)N)C(=O)N[C@@H](C)C(=O)N[C@@H](CCCNC(=N)N)C(=O)N[C@@H](CCC(=O)O)C(=O)N[C@@H](Cc1ccccc1)C(=O)N[C@H](C(=O)N[C@@H](CCC(N)=O)C(=O)N[C@@H](Cc1c[nH]c2ccccc12)C(=O)N[C@@H](CC(C)C)C(=O)N[C@@H](CC(C)C)C(=O)N[C@@H](CCCCNC(=O)CC[C@H](NC(=O)CC[C@H](NC(=O)COCCOCCNC(=O)COCCOCCNC(=O)CC[C@H](NC(=O)CCCCCCCCCCCCCCCCC(=O)O)C(=O)O)C(=O)O)C(=O)O)C(=O)N[C@H](C(N)=O)[C@@H](C)O)C(C)C [Example 26, N^ε28-[(4S)-4-carboxy-4-[[(4S)-4-carboxy-4-[[2-[2-[2-[[2-[2-[2-[[(4S)-4-carboxy-4-(17-carboxyheptadecanoylamino)butanoyl]amino]ethoxy]ethoxy]-acetyl]amino]ethoxy]ethoxy]acetyl]amino]butanoyl]amino]butanoyl]-[Aib2,Leu10,Leu16,Lys17,Arg20,Glu21, Leu27,Lys28]-Glucagon amide] (H-H[Aib]QGTFTSDLSKYLDLKRAREFVQWLLK([γGlu-γGlu-AEEA-AEEA-γGlu-C18 diacid])T-NH2) | 0.5 |
| CC(C)C[C@H](NC(=O)[C@H](Cc1ccc(O)cc1)NC(=O)[C@H](CCCCN)NC(=O)[C@H](CO)NC(=O)[C@H](CC(C)C)NC(=O)[C@H](CC(=O)O)NC(=O)[C@H](CO)NC(=O)[C@@H](NC(=O)[C@H](Cc1ccccc1)NC(=O)[C@@H](NC(=O)CNC(=O)[C@H](CCC(N)=O)NC(=O)C(C)(C)NC(=O)[C@@H](N)Cc1c[nH]cn1)[C@@H](C)O)[C@@H](C)O)C(=O)N[C@@H](CC(=O)O)C(=O)N[C@@H](C)C(=O)N[C@@H](CCCNC(=N)N)C(=O)N[C@@H](CCCNC(=N)N)C(=O)N[C@@H](C)C(=O)N[C@@H](CCCNC(=N)N)C(=O)N[C@@H](CCC(=O)O)C(=O)N[C@@H](Cc1ccccc1)C(=O)N[C@H](C(=O)N[C@@H](CCC(N)=O)C(=O)N[C@@H](Cc1c[nH]c2ccccc12)C(=O)N[C@@H](CC(C)C)C(=O)N[C@@H](CC(C)C)C(=O)N[C@@H](CC(N)=O)C(=O)N[C@@H](CCCCNC(=O)CC[C@H](NC(=O)CC[C@H](NC(=O)COCCOCCNC(=O)CC[C@H](NC(=O)CCCCCCCCCCCCCCCCC(=O)O)C(=O)O)C(=O)O)C(=O)O)C(N)=O)C(C)C [Example 39, N^ε29-[(4S)-4-carboxy-4-[[(4S)-4-carboxy-4-[[2-[2-[2-[[(4S)-4-carboxy-4-(17-carboxyheptadecanoylamino)butanoyl]amino]ethoxy]ethoxy]acetyl]amino]butanoyl]amino]butanoyl]-[Aib2,Leu10,Ala16,Arg20,Glu21,Leu27,Lys29]-Glucagon amide] (H-H[Aib]QGTFTSDLSKYLDARRAREFVQWLLNK([γGlu-γGlu-AEEA-γGlu-C18 diacid])-NH2; N-terminus assumed) | 0.3 |
